This is an account of results in patent US4454156A, “4-Amino-hepta-5,6-dienoic acid” (Merrell-Toraude et Compagnie, priority 1982, dated 1984).

Where two headings read alike, the source gives them in different places.

For data set [1], the system named is GABA-T. The conditions noted are these: known compounds, literature; cited from earlier work.
For data set [2], the system named is brain levels of GABA. The note with it: known compounds, literature; cited from earlier work.
Data set [3] deals with GABA-T. The experiment in a line: Biochemical tests for irreversible inhibition of GABA-T. The conditions noted are these: biochemical / biological tests.
The subject of data set [4] is GABA-T. The experiment in a line: GABA-T activity in mouse brain after a single i.p. or oral dose. The data set is classed as in vivo, mice. The conditions noted are these: for GABA-T Activity (calculated as percent inhibition): 6 h, Table 2. As for the experimental part:
Male albino CD1 mice each weighing approximately 34 g at commencement of the test are given an i.p. injection of the test compound in aqueous solution daily for seven consecutive days. Half of the animals are killed by decapitation 24 hours after the last dose fo the test compound. The other half of the animals are observed for up to 12 days for toxicity (as indicated by weight loss and deaths). Control animals receive an injecion of the vehicle only.
The brains are removed from the dead mice and are divided into two portions by sagittal section. One half is used for the measurement of GABA-T activity while the other is used for measuring GABA content. The GABA-T activity is measured using known methods as described by M. Jung et al., J.Neurochem., 28, 717 (1977) and 29, 797 (1977). GABA content is measured by perchloric acid or trichloroacetic acid extracts using an amino acid analyzer equiped with a fluorescence detector.
A. The procedure of Example 3 is repeated using a single i.p. dose of the test compound and killing the mice 6 hours after the i.p. injection.
(§1) B. The procedure of Part A is repeated using both oral and i.p. doses of (R,S)-allenyl GABA.

Data set [5] deals with GABA levels in the brain. The experiment in a line: GABA level in mouse brain after a single i.p. or oral dose. The conditions noted are these: for GABA Level (calculated as percent of control): 6 h. The data set is classed as in vivo, mice. As for the experimental part:
[…] […] The other half of the animals are observed for up to 12 days for toxicity (as indicated by weight loss and deaths). Control animals receive an injecion of the vehicle only.
The brains are removed from the dead mice and are divided into two portions by sagittal section. One half is used for the measurement of GABA-T activity while the other is used for measuring GABA content. […] GABA content is measured by perchloric acid or trichloroacetic acid extracts using an amino acid analyzer equiped with a fluorescence detector.
as §1

A short description of data set [6]: Toxicity (lethality) after i.p. or oral administration to mice. The note with it: for No. of dead animals Day 4: Example 5 Part B. As for the experimental part:
A. The toxicity of (S)-allenyl GABA and (R,S)-allenyl GABA was determined after i.p. administration to male mice. The mice were observed up to eight days after injection.
B. The toxicity of (S)-allenyl GABA ("S") and (R,S)-allenyl GABA ("R,S") was determined as in Part A after both oral and i.p. administration.

With `C#CC(N)CCCN` (stereo not shown) [1-acetylene-1,4-butanediamine], the “irreversible inhibition of GABA-T” value in data set [1] is “irreversible inhibitors of GABA-T”. For the same molecule, the “elevation of brain levels of GABA” value in data set [2] is “elevate brain levels of GABA”.

As to `C=CC(N)CCC(=O)O` (stereo not shown) [4-aminohex-5-enoic acid ("vinyl GABA"), 4-aminohex-5-enoic acid], the “irreversible inhibition of GABA-T” value in data set [1] is “irreversible inhibitors of GABA-T”. In addition, in data set [2], the “elevation of brain levels of GABA” value is on record as “elevate brain levels of GABA”.

For `C#CC(N)CCC(=O)O` (stereo not shown) [4-aminohex-5-ynoic acid], the “irreversible inhibition of GABA-T” value in data set [1] is recorded as “irreversible inhibitors of GABA-T”. Moreover, in data set [2], the “elevation of brain levels of GABA” value is on record as “elevate brain levels of GABA”.

In the case of `C=C=C[C@H](N)CCC(=O)O` [(R)-allenyl GABA], the “irreversible inhibition of GABA-T” value in data set [3] is “not an irreversible inhibitor of GABA-T”; in data set [3] (listed as (R)(-)-isomer), “not active”.

Turning to `C=C=C[C@@H](N)CCC(=O)O` [(S)-allenyl GABA, (S)-4-amino-hepta-5,6-dienoic acid], in data set [4] (in vivo), the “irreversible inhibition of GABA-T in vivo” value was “produce irreversible inhibition of GABA-T”. Besides, the “GABA-T Activity (calculated as percent inhibition)” value in data set [4] (single i.p. dose 0.77 mM/kg (135.9 mg/kg)) is listed as 79 percent inhibition; in data set [4] (single i.p. dose 1.55 mM/kg (273.5 mg/kg)), 92 percent inhibition; in data set [4] (single i.p. dose 3.10 mM/kg (547.2 mg/kg)) it was 96 percent inhibition. Also, the “relative potency for the elevation of GABA levels” value in data set [5] ((S) versus (R,S), single i.p. dose, Table 2) was “twice the potency of (R,S)-allenyl GABA”. The “elevation of GABA levels in the CNS” value in data set [5] (administered orally or parenterally) is on record as “can elevate GABA levels significantly in the CNS”. Moreover, the “effectiveness by oral versus i.p. route” value in data set [5] (oral vs i.p., Table 3) was “equally effective when given by the oral and i.p. routes of administration”. Moreover, the “GABA Level (calculated as percent of control)” value is listed as 540% of control in data set [5] (single i.p. dose 0.77 mM/kg (135.9 mg/kg), Table 2); 670% of control in data set [5] (single i.p. dose 1.55 mM/kg (273.5 mg/kg), Table 2); 730% of control in data set [5] (single i.p. dose 3.10 mM/kg (547.2 mg/kg), Table 2). Also, the “No. of dead animals” value is 0/5 in data set [6] (i.p., 250 mg/kg, Day 1); 0/5 in data set [6] (i.p., 250 mg/kg, Day 2); 0/5 in data set [6] (i.p., 250 mg/kg, Day 3); 0/5 in data set [6] (i.p., 250 mg/kg, Day 4); 0/5 in data set [6] (i.p., 250 mg/kg, Day 8); 0/5 in data set [6] (i.p., 375 mg/kg, Day 1). The “No. of dead animals” value was 0/5 in data set [6] (i.p., 375 mg/kg, Day 2); 0/5 in data set [6] (i.p., 375 mg/kg, Day 3); 0/5 in data set [6] (i.p., 375 mg/kg, Day 4); 0/5 in data set [6] (i.p., 375 mg/kg, Day 8); 0/5 in data set [6] (i.p., 500 mg/kg, Day 1); 0/5 in data set [6] (i.p., 500 mg/kg, Day 2). The “No. of dead animals” value in data set [6] (i.p., 500 mg/kg, Day 3) is 0/5; in data set [6] (i.p., 500 mg/kg, Day 4), 0/5; in data set [6] (i.p., 500 mg/kg, Day 8), 0/5; in data set [6] (i.p., 750 mg/kg, Day 1), 0/5; in data set [6] (i.p., 750 mg/kg, Day 2), 0/5; in data set [6] (i.p., 750 mg/kg, Day 3), 0/5. In addition, the “No. of dead animals” value is on record as 0/5 in data set [6] (i.p., 750 mg/kg, Day 4) and 0/5 in data set [6] (i.p., 750 mg/kg, Day 8). In data set [6] (i.p., very large doses corresponding to maximal biological effects), the “toxicity after i.p. administration” value is “non-toxic after i.p. administration of very large doses”. In addition, the “toxicity by oral administration” value in data set [6] (oral) is on record as “non-toxic by oral administration”. For the same molecule, the “No. of dead animals Day 4” value in data set [6] (oral, 500 mg/kg, Day 4) is 0/5; in data set [6] (oral, 750 mg/kg, Day 4), 1/5. For the same molecule, in data set [3], the “irreversible inhibition of GABA-T” value was “irreversible inhibitor of GABA-T”.
